Data as given in patent US10391095B2, “DNA-PK inhibitors” (Vertex Pharmaceuticals Incorporated, priority 2012, dated 2019).
pKi: −log10 of the molar value.

molecular target: DNA-PK (Homo sapiens, UniProt P78527); assay: DNA-PK inhibition assay (radiometric, 33P-ATP); assay type: biochemical; conditions: 100 μM ATP, competitive tight-binding fit
How it was run: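 Approx. 6 nM DNA-PK with 10 µg/mL sheared dsDNA, 0.8 mg/mL peptide substrate and 100 µM 33P-ATP in HEPES pH 7.5, 10 mM MgCl2; 45 min, phosphoric acid quench. Phosphopeptide captured on filter plates and counted by scintillation; Ki from a competitive tight-binding model fit.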

pKi, > 7.52:
Cc1ccc(-c2cc(NCC(C)c3ccccc3OCC3CCCC3)ncn2)cn1 (stereo not shown) [Compound 194]
CNC(=O)c1ccc([C@H](C)CNc2cc(-c3ccc(NCCCOC)nc3)ncn2)c(OC)c1 [Compound 375]
CC(CNc1cc(-c2cnc3c(cnn3CC3CC3)c2)ncn1)c1ccccc1OC1COC1 (stereo not shown) [Compound 217]
CNC(=O)c1ccnc2c([C@H](C)CNc3cc(-c4cncc(-c5nnco5)c4)ncn3)cccc12 [Compound 960]
CC(=O)N1CCN(c2ccc(-c3cc(NCC(C)c4ccccc4OCc4ccccc4)ncn3)cn2)CC1 (stereo not shown) [Compound 135]
CC(CNc1cc(-c2cnc3c(cnn3C3CCN(C)CC3)c2)ncn1)c1ccccc1OC1CC1 (stereo not shown) [Compound 145]
CNC(=O)c1ccc([C@H](C)CNc2cc(-c3ccc(N(C)CCO)nc3)ncn2)c(OC)c1 [Compound 365]
CNC(=O)c1ccnc2c([C@H](C)CNc3cc(-c4ccc(N5CC(CO)C5)nc4)ncn3)cccc12 [Compound 736]
C[C@H](CNc1cc(-c2cnc3c(cnn3C)c2)ncn1)c1ccnc2c1OCC2 [Compound 438]
C[C@H](CNc1cc(-c2ccc(N3CCOCC3)nc2)ncn1)c1ccnc2c1OCCO2 [Compound 522]
CNC(=O)c1ccnc2c([C@H](C)CNc3cc(N4CNC(=O)C4)ncn3)cccc12 [Compound 797]
CC(CNc1cc(-c2cnc3c(cnn3CCO)c2)ncn1)c1ccc(F)cc1OC1CC1 (stereo not shown) [Compound 275]
Cc1ccc(-c2cc(NC[C@@H](C)c3cccc4c(CO)ccnc34)ncn2)cn1 [Compound 568]
CNC(=O)c1ccnc2c([C@H](C)CNc3cc(-c4ccc(S(C)(=O)=O)cc4)ncn3)cccc12 [Compound 675]
CNC(=O)c1ccnc2c([C@H](C)CNc3cc(-c4ccc(F)cc4)ncn3)cccc12 [Compound 684]
COc1ccsc1C(C)CNc1cc(-c2cnc3c(cnn3C3CCN(C)CC3)c2)ncn1 (stereo not shown) [Compound 262]
COc1cc(F)c(F)cc1[C@H](C)CNc1cc(-c2ccc(C)nc2)ncn1 [Compound 128]
CNC(=O)c1ccc([C@H](C)CNc2cc(-c3ccc4c(c3)CC(=O)N4)ncn2)c(OC)c1 [Compound 310]
CCOc1cc(-c2cc(NC[C@@H](C)c3ccc(F)c4c(C(=O)NC)ccnc34)ncn2)cnc1OCC [Compound 905]
COc1ccccc1[C@H](C)CNc1cc(-c2cnc3c(cnn3C3CN(C(C)=O)C3)c2)ncn1 [Compound 249]
CNC(=O)c1ccnc2c([C@H](C)CNc3cc(-c4cnc5c(c4)CCN5)ncn3)cccc12 [Compound 954]
CCc1ncc(-c2cc(NC[C@@H](C)c3cccc4c(C(=O)NC)ccnc34)ncn2)cn1 [Compound 829]
CNC(=O)c1ccnc2c([C@H](C)CNc3cc(-c4ccc5c(c4)CNCC5)ncn3)cccc12 [Compound 801]
CNC(=O)c1ccnc2c([C@H](C)CNc3cc(-c4ccc(NC5CCN(Cc6ccccc6)C5)nc4)ncn3)cccc12 (stereo partly shown) [Compound 701]
CNC(=O)c1ccnc2c([C@H](C)CNc3cc(-c4cnc(NC)c(C#N)c4)ncn3)cccc12 [Compound 955]
CNc1ncc(-c2cc(NC[C@@H](C)c3ccccc3OC)ncn2)cn1 [Compound 137]
CNC(=O)c1ccc([C@H](C)CNc2cc(-c3ccnc4c3ccn4C3COC3)ncn2)c(OC)c1 [Compound 479]
C[C@H](CNc1cc(-c2ccc(N)nc2)ncn1)c1ccnc2c1OCC2 [Compound 594]
CNC(=O)c1ccnc2c([C@H](C)CNc3cc(-c4cnc(OC)c(N)c4)ncn3)ccc(F)c12 [Compound 910]
C[C@H](CNc1cc(-c2ccc(N)nc2)ncn1)c1ccnc2c1OCCO2 [Compound 459]
CNC(=O)c1ccnc2c([C@H](C)CNc3cc(-c4cnc(F)c(C)c4)ncn3)cccc12 [Compound 951]
CNC(=O)c1ccnc2c([C@H](C)CNc3cc(-c4ccc(OC(C)(C)C)cc4)ncn3)cccc12 [Compound 755]
CNC(=O)c1ccnc2c([C@H](C)CNc3cc(-c4ccc(C(C)(C)C#N)cc4)ncn3)cccc12 [Compound 679]
COc1sccc1C(C)CNc1cc(-c2cnc3c(cnn3CC3CC3)c2)ncn1 (stereo not shown) [Compound 266]
CCNc1ccc(-c2cc(NC[C@@H](C)c3ccnc4cc(C)oc34)ncn2)cn1 [Compound 573]
CNC(=O)c1ccc([C@H](C)CNc2cc(-c3ccc(F)nc3)ncn2)c(OC)c1 [Compound 328]
CC(CNc1cc(-c2cnc3c(cnn3CCO)c2)ncn1)c1csc2cccnc12 (stereo not shown) [Compound 399]
CNC(=O)c1ccnc2c([C@H](C)CNc3cc(-c4cnc(N5CCC(O)CC5)nc4)ncn3)cccc12 [Compound 729]
CNC(=O)c1ccc([C@H](C)CNc2cc(-c3ccc4c(c3)NC(=O)C4)ncn2)c(OC)c1 [Compound 311]
CCOc1ccccc1CCNc1cc(-c2ccc(N3CCN(CCO)CC3)nc2)ncn1 [Compound 94]
COc1sccc1C(C)CNc1cc(-c2ccc(N3CCN(C)CC3)nc2)ncn1 (stereo not shown) [Compound 265]
COc1cc(C(=O)NCC(F)F)ccc1C(C)CNc1cc(-c2ccc(C)nc2)ncn1 (stereo not shown) [Compound 296]
CNC(=O)c1cc(OC)c(C(C)CNc2cc(-c3ccc(C)nc3)ncn2)cn1 (stereo not shown) [Compound 376]
CNC(=O)c1ccc([C@H](C)CNc2cc(-c3ccc4c(c3)CNC4=O)ncn2)c(OC)c1 [Compound 312]
COc1ccccc1CCNc1cc(-c2ccc(N3CCN(C(C)=O)CC3)nc2)ncn1 [Compound 16]
CNC(=O)c1ccc(C(C)CNc2cc(-c3cnc4c(cnn4CCN4CCCC4=O)c3)ncn2)c(OC)c1 (stereo not shown) [Compound 239]
CNC(=O)c1ccnc2c([C@H](C)CNc3cc(-c4ccc(C(C)C)nc4)ncn3)cccc12 [Compound 848]
CNC(=O)c1ccc([C@H](C)CNc2cc(-c3ccc(NCCCO)nc3)ncn2)c(OC)c1 [Compound 355]
COCCn1ncc2cc(-c3cc(NCC(C)c4cnccc4OC4CC4)ncn3)cnc21 (stereo not shown) [Compound 176]
CNC(=O)c1ccnc2c([C@H](C)CNc3cc(-c4ccc(C(=O)OC)s4)ncn3)cccc12 [Compound 774]
CNC(=O)c1ccnc2c([C@H](C)CNc3cc(-c4cnc(C)s4)ncn3)cccc12 [Compound 778]
CNC(=O)c1c(-n2ccc(C)n2)cnc2c([C@H](C)CNc3cc(-c4ccc(C)nc4)ncn3)cccc12 [Compound 740]
CNC(=O)c1ccnc2c([C@H](C)CNc3cc(-c4ccc5c(c4)CCN(C(=O)COC)C5)ncn3)cccc12 [Compound 835]
CCn1ccc2cc(-c3cc(NCCc4ccccc4OC)ncn3)cnc21 [Compound 35]
COc1ncc(-c2cc(NC[C@@H](C)c3ccnc4c3OCCO4)ncn2)cc1CO [Compound 550]
COc1ccccc1CCNc1cc(-c2cnc3c(cnn3CS(C)(=O)=O)c2)ncn1 [Compound 97]
COc1cc(C(=O)NCC(F)(F)F)ccc1C(C)CNc1cc(-c2ccc(C)nc2)ncn1 (stereo not shown) [Compound 218]
CNC(=O)c1c(F)cnc2c([C@H](C)CNc3cc(-c4cnnc(C)c4)ncn3)cccc12 [Compound 968]
CNC(=O)c1ccnc2c([C@H](C)CNc3cc(-c4cnc5c(c4)CN(C(C)=O)CC5)ncn3)cccc12 [Compound 815]
CNC(=O)c1ccc([C@H](C)CNc2cc(-c3cnc4c(ccn4CCO)c3)ncn2)c(OC)c1 [Compound 269]
COc1ccccc1[C@H](C)CNc1cc(-c2ccc(Nc3nn[nH]n3)nc2)ncn1 [Compound 203]
CNC(=O)c1ccnc2c([C@H](C)CNc3cc(-c4ccc5c(c4)N(C)CCO5)ncn3)cccc12 [Compound 864]
Cc1ccc(-c2cc(NC[C@@H](C)c3ccnc4cc(C)oc34)ncn2)cn1 [Compound 563]
COc1ccccc1[C@H](C)CNc1cc(-c2cnc3c(cnn3CC(O)CO)c2)ncn1 (single isomer, unassigned) [Compound 149]
C[C@H](CNc1cc(-c2ccc(NC3CC3)nc2)ncn1)c1ccnc2c1OCCO2 [Compound 465]
CCOc1ccc(-c2cc(NC[C@@H](C)c3cccc4c(C(=O)NC)c(F)cnc34)ncn2)cn1 [Compound 932]
CCc1ncc(-c2cc(NC[C@@H](C)c3ccc(F)c4c(C(=O)NC)ccnc34)ncn2)cn1 [Compound 830]
CNC(=O)c1c(F)cnc2c([C@H](C)CNc3cc(-c4ccc(F)nc4)ncn3)cccc12 [Compound 899]
COc1ccccc1[C@H](C)CNc1cc(-c2ccnc(Nc3nn[nH]n3)c2)ncn1 [Compound 211]
COc1ccccc1[C@H](C)CNc1cc(-c2ccnc(NCCSC)c2)ncn1 [Compound 210]
C[C@H](CNc1cc(-c2cnc(N)c(Cl)c2)ncn1)c1ccnc2c1OCCO2 [Compound 553]
CNC(=O)c1ccc([C@H](C)CNc2cc(-c3ccc(NC4CCOC4)nc3)ncn2)c(OC)c1 (single isomer, unassigned) [Compound 391]
CNCCNc1ccc(-c2cc(NC[C@@H](C)c3ccccc3OC)ncn2)cn1 [Compound 205]
CNC(=O)c1ccnc2c([C@H](C)CNc3cc(-c4ccc5ncccc5c4)ncn3)cccc12 [Compound 582]
CNC(=O)c1ccc(C(C)CNc2cc(-c3ccc4c(cnn4CCO)c3)ncn2)c(OC)c1 (stereo not shown) [Compound 246]
COc1ccccc1[C@H](C)CNc1cc(-c2cnc3c(cnn3C3CCN(C)CC3)c2)ncn1 [Compound 83]
